Results taken from US8916516B2, “Treatment of fungal and/or protist infections” (AI2 Limited, priority 2005, dated 2014).
Like-named read-outs stand apart in the source and are kept apart here.

Assays:
[1] = test system: Aspergillus fumigatus AF293 (NCPF7367); test: microbe, parasite or virus in culture; format: cell-based; design: MIC values (>80% reduction) AF, positive control: unit not given beside the values; conditions: for MIC values (>80% reduction) AF: Aspergillus fumigatus 293, peptides, Tables 4 and 5
Protocol: (§1) Four compounds were supplied as an aqueous solution, 400 μM. Serial dilutions of each test peptide were prepared in addition to a control, which was a conventional antifungal drug, Amphoteracin B. Amphteracin B is obtained from Invitrogen or Melford laboratories.
(§2) Initial testing of the peptides was carried out against the following organisms: • 1) Aspergillus fumigatus AF293 (culture collection strain NCPF7367) • 2) Candida albicans 6862 (clinical isolate) • 3) Fusarium spp 5889 (clinical isolate) • 4) Fusarium spp 6507 (clinical isolate) • 5) Aspergillus terreus (clinical isolate) • 6) Aspergillus niger (clinical isolate) • 7) Staphylococcus aureus (Oxford strain, which is a standard reference strain used in MIC testing)
(§3) The bacterium S. aureus was tested with each of the peptides as a control. A suspension of each organism in an appropriate growth medium was added to the, dilutions of the peptides in order to give concentration ranges of 40 μM to 0.04 μM for each of the peptides, and 64-0.025 μg/ml for amphotericin B. Fungal strains were tested in RPMI media. RPMI is standard Roswell Park Memorial Institute medium (Morton, H. C., (1970) A survey of Commercially Available Tissue Culture Media. In Vitro 6: 89-108).
(§4) The final inoculum for S. aureus was 5×10^4 cfu/ml. The final inoculum for C. albicans was 2×10^3 cfu/ml. The final inoculum for Aspergillus fumigatus and for Fusarium spp was 2×10^4 cfu/ml.
(§5) Candida and S. aureus plates were read after 24 hrs incubation and the Aspergillus and Fusarium strains read after 48 hrs. The MIC was taken as the lowest drug or compound concentration that caused >80% reduction in growth compared with a drug free control.
Aspergillus fumigatus 293 (AF); and
FS1-FS4 were obtained from Bristol PHLS (British Public Health Laboratory Service UK). Aspergillus fumigatus 293 is publicly available as culture collection strain NCPF7367 (National Collection of Pathogenic Fungi Public Health Laboratory, Mycological Reference Laboratory Myrtle Road, Kingsdown, Bristol BS2 8EL) The Candida albicans was a clinical isolate obtained by standard means. […]

Fusarium solani 4 (FS4) = test: Antifungal MIC (Example 4); format: cell-based; design: MIC values (>80% reduction) FS4, positive control: unit not given beside the values; conditions: for MIC values (>80% reduction) FS4: Fusarium solani 4, peptides, Tables 4 and 5
Protocol: (§6) The inventor expanded the work conducted in Example 1 by testing an expanded library of peptides derived from either apolipoprotein B or apolipoprotein E in order to further evaluate polypeptides in accordance with the invention. These experiments were conducted using the following fungal species:
(§7) FS1-FS4 were obtained from Bristol PHLS (British Public Health Laboratory Service UK). Aspergillus fumigatus 293 is publicly available as culture collection strain NCPF7367 (National Collection of Pathogenic Fungi Public Health Laboratory, Mycological Reference Laboratory Myrtle Road, Kingsdown, Bristol BS2 8EL) The Candida albicans was a clinical isolate obtained by standard means.
(§8) The methods used to determine, the IC50 values for each peptide were as described in the Example 1.

Fusarium solani 1 (FS1) = test: Antifungal MIC (Example 4); format: cell-based; design: MIC values (>80% reduction) FS1, positive control: unit not given beside the values; conditions: for MIC values (>80% reduction) FS1: Fusarium solani 1, peptides, Tables 4 and 5
Protocol: as §6, §7, §8

[2] = test system: Fusarium spp 6507 (clinical isolate); test: Antifungal MIC broth dilution (Example 1); format: cell-based; conditions: RPMI, 48 hrs, >80% reduction
Protocol: as §1, §2, §3, §4, §5

[3] = test system: Fusarium spp 5889 (clinical isolate); test: Antifungal MIC broth dilution (Example 1); format: cell-based; conditions: RPMI, 48 hrs, >80% reduction
Protocol: as §1, §2, §3, §4, §5

[4] = test system: Aspergillus niger (clinical isolate); test: microbe, parasite or virus in culture; format: cell-based
Protocol: as §1, §2, §3, §5

[5] = test system: Aspergillus terreus (clinical isolate); test: microbe, parasite or virus in culture; format: cell-based
Protocol: as §1, §2, §3, §5

[6] = test system: Staphylococcus aureus (Oxford strain); test: microbe, parasite or virus in culture; format: cell-based
Protocol: as §1, §2, §3
S. aureus was tested in Isosensitest broth. Isosentitest agar is a standard MIC medium used by many hospital labs for bacterial MICs using a disc diffusion method. The reference standard is Oxoid CM471. Also available in broth form, CM473, for the bacterial broth dilution assay method. NCCLS ref M7-A4. Both the NCCLS methods quoted are the standard methods.
as §4, §5

[7] = test system: Candida albicans 6862 (clinical isolate); test: microbe, parasite or virus in culture; format: cell-based
Protocol: as §1, §2, §3, §4, §5

Fusarium solani 2 (FS2) = test: Antifungal MIC (Example 4); format: cell-based; design: MIC values (>80% reduction) FS2, positive control: unit not given beside the values; conditions: for MIC values (>80% reduction) FS2: Fusarium solani 2, peptides, Tables 4 and 5
Protocol: as §6, §7, §8

Fusarium solani 3 (FS3) = test: Antifungal MIC (Example 4); format: cell-based; design: MIC values (>80% reduction) FS3, positive control: unit not given beside the values; conditions: for MIC values (>80% reduction) FS3: Fusarium solani 3, peptides, Tables 4 and 5
Protocol: as §6, §7, §8

[8] = test system: Acanthamoeba polyphaga (trophozoites), Ros strain; test: Microtitre plate assay against Acanthamoeba trophozoites (Example 2); format: cell-based; conditions: for MATC = minimum amoebacidal trophozoite concentration: lowest concentration killing the trophozoite challenge
Text: The test compounds were screened against the trophozoites of clinical isolates of Acanthamoeba spp. using a microtitre plate assay procedure. The organisms were Acanthamoeba polyphaga. (see for details on the strain and methodology used: Hughes, R. & Kilvington, S. (2001). A comparison of hydrogen peroxide contact lens disinfection systems and solutions against Acanthamoeba polyphaga. Antimicrob. Agents Chemother. 45: 2038-2043.) Acanthamoeba polyphaga Ros strain was used throughout the study. The strain was originally isolated from an unpublished case of acanthamoeba keratitis in the United Kingdom in 1994.
Use of the microliter plate assay enabled the determination of the minimum amoebacidal trophozoite concentration (MATC), which is the minimum amoebacidal trophozoite concentration (μg/ml)=lowest concentration killing the trophozoite challenge […] and also the minimum inhibitory trophozoite concentration (MITC), which is the minimum inhibitory trophozoite concentration (μg/ml)=lowest concentration stopping the trophozoites from dividing or killing about 50% of population. The values may then be used to select drug concentrations for use in time-kill experiments to study the kinetics of Acanthamoeba killing.

[9] = test system: Candida albicans (CA), clinical isolate; test: Antifungal MIC (Example 4); format: cell-based; conditions: peptides, Tables 4 and 5
Protocol: as §6, §7, §8

P. berghei sporozoites = test: Sporozoite development assay in Hepa 1-6 cells (Example 5); format: cell-based, Plasmodium berghei; conditions: for inhibition of entry of P. berghei into Hep 1-6 cells: sporozoites pre-incubated with polypeptide at 50 μg/ml, plated on cells with peptide present, FIG. 5(A)
Protocol: 3-5 day-old Anopheles stephensi mosquitoes were fed on anesthetized P. berghei (NK65)-infected Swiss Webster mice which had been checked by blood smear for the abundance of gametocyte-stage parasites. Salivary gland sporozoites were harvested on days 18 to 21 post-infective blood meal. The mosquitoes were rinsed in 70% ethanol and washed in Dulbecco's Modified Eagle Medium (DMEM) before salivary gland dissection. The glands were gently ground, spun at 80×g for 3 min to remove mosquito debris and sporozoites counted in a hemocytometer.
Hepa 1-6 cells (ATCC CRL-1830, American Type Culture Collection, Manassas, Va.), a mouse hepatoma cell line permissive for P. berghei sporozoite development were seeded (8×10^4 cells/well) in Lab-Tek permanox chamber slides (Nalgene Nunc Corp., Naperville, Ill.) and grown until confluent. On the day of the experiment, sporozoites were dissected from mosquitoes and pre-incubated with Dulbecco's Modified Eagle Medium (DMEM; Invitrogen, Carlsbad, Calif.) with 1% BSA alone or with the indicated polypeptide at 50 μg/ml for 1 hr at 28° C. and plated on cells in the continued presence of the inhibitor in DMEM containing 10% fetal calf serum (complete medium). After 1 hr at 37° C., the medium containing unattached sporozoites and polypeptide was removed and replaced with complete medium. […] The number of EEFs in each well were counted with a 40× objective on a Nikon fluorescent microscope. In other experiments, Hepa1-6 cells were pretreated with the polypeptides at 50 μg/ml in complete medium for 1 hour, washed and then sporozoites were added in complete medium without polypeptide and the assay was continued as outlined above.

fungi = format: cell-based
Protocol: as §1, §2
The bacterium S. aureus was tested with each of the peptides as a control. […] RPMI is standard Roswell Park Memorial Institute medium (Morton, H. C., (1970) A survey of Commercially Available Tissue Culture Media. In Vitro 6: 89-108).
as §5, §8

bacteria = conditions: reported by Azuma et al., Peptides 21: 327-330 (2000); cited from earlier work

| Molecule | MIC ([1]; AF293 (NCPF7367, 48 h)) | MIC values (>80% reduction) AF [1] | MATC = minimum amoebacidal trophozoite concentration [8] | MIC values (>80% reduction) CA [9] | MIC values (>80% reduction) FS4 (Fusarium solani 4 (FS4)) | MIC values (>80% reduction) FS1 (Fusarium solani 1 (FS1)) | MIC [2] | MIC [3] | MIC ([4]; clinical isolate) | MIC [5] | MIC ([6]; Oxford strain, 24 h) | MIC ([7]; 6862 (clinical isolate, 24 h)) | inhibition of entry of P. berghei into Hep 1-6 cells (P. berghei sporozoites) | MIC values (>80% reduction) FS2 (Fusarium solani 2 (FS2)) | MIC values (>80% reduction) FS3 (Fusarium solani 3 (FS3)) | antibacterial activity (in words) (bacteria) | other results |
| --- | --- | --- | --- | --- | --- | --- | --- | --- | --- | --- | --- | --- | --- | --- | --- | --- | --- |
| C[C@@H]1[C@H](O)[C@@H](C)/C=C/C=C/C=C/C=C/C=C/C=C/C=C/[C@H](O[C@@H]2O[C@H](C)[C@@H](O)[C@H](N)[C@@H]2O)C[C@@H]2O[C@](O)(C[C@@H](O)C[C@@H](O)[C@H](O)CC[C@@H](O)C[C@@H](O)CC(=O)O[C@H]1C)C[C@H](O)[C@H]2C(=O)O [Amphotericin B, reference compound] |  |  |  |  |  |  |  |  |  |  |  |  |  |  |  |  | MIC values (>80% reduction) AF, positive control ([1]; Amphotericin B, fifth of five values, unit not given): 0.04; MIC ([1]; NCPF7367, Aspergillus fumigatus, RPMI, read after 48 hrs, >80% reduction, read-out: MIC): 0.6 µg/mL; MIC values (>80% reduction) FS4, positive control (Fusarium solani 4 (FS4); Amphotericin B, fourth of five values, unit not given): 0.15; MIC values (>80% reduction) FS1, positive control (Fusarium solani 1 (FS1); Amphotericin B, first of five values, unit not given): 0.15; MIC ([2]; read-out: MIC): 1.25 µg/mL; MIC ([3]; read-out: MIC): 2.5 µg/mL; MIC ([4]; Aspergillus niger, RPMI, >80% reduction, read-out: MIC): 0.15 µg/mL; MIC ([5]; Aspergillus terreus, RPMI, >80% reduction, read-out: MIC): 1.25 µg/mL; MIC ([6]; Staphylococcus aureus, Staph aureus (Oxford), Isosensitest broth, 24 hrs, read-out: MIC): > 40 µg/mL; MIC ([7]; Candida albicans, C. albicans 6862, RPMI, read after 24 hrs, >80% reduction in growth, read-out: MIC): 0.6 µg/mL; MIC values (>80% reduction) FS2, positive control (Fusarium solani 2 (FS2); Amphotericin B, second of five values, unit not given): 1.25; MIC values (>80% reduction) FS3, positive control (Fusarium solani 3 (FS3); Amphotericin B, third of five values, unit not given): 0.3 |
| Ac-LRKLRKRLLLRKLRKRLL-NH2 [MU_10] | >40 µM | >40 µM | 207.1 µM | >40 µM | 5 µM | 2.5 µM | >40 µM | 10 µM | >40 µM | >40 µM | >40 µM | >40 µM | inhibit entry of P. berghei into Hep 1-6 cells | 5 µM | 2.5 µM |  |  |
| Ac-WRKWRKRLLLRKLRKRLL-NH2 [MU_114] | >40 µM |  |  |  |  |  | 40 µM | 5 µM | 20 µM | >40 µM | 40 µM | >40 µM |  |  |  |  | MATC = minimum amoebacidal trophozoite concentration ([8]; listed as MU 114): 98.7 µM; MATC = minimum amoebacidal trophozoite concentration ([8]; listed as MU114): 93.8 µM; antifungal activity (in words) (fungi; overall statement on the fungi tested): showed antifungal activity |
| Ac-WRKWRKRWWWRKWRKRWW-NH2 [MU_4] | 2.5 µM | 1.25 µM | 41.7 µM | 2.5 µM | 0.3 µM | 0.3 µM | 10 µM | 2.5 µM | 1.25 µM | >40 µM | 5 µM | 10 µM | inhibit entry of P. berghei into Hep 1-6 cells | 0.3 µM | 0.3 µM |  | MITC = minimum inhibitory trophozoite concentration ([8]; lowest concentration stopping trophozoites dividing or killing about 50% of population): 20.8 µM; IC50 (fungi; fungus not specified, read-out: IC50 value for inhibiting fungal growth): ≤ 2.5 µM; block of P. berghei entry after pretreatment of cells (P. berghei sporozoites; cells treated with peptide at 50 μg/ml for 1 hour, washed, then sporozoites added, FIG. 5(B)): retained its ability to block P. berghei entry |
| apoE134-151: Azuma's apolipoprotein E peptide, 18 amino acids in length (RVRLASHLRKLRKRLLRD; UniProt P02649 152-169, looked up, fragment) |  |  |  |  |  |  |  |  |  |  |  |  |  |  |  | no activity at all |  |
| apoE134-155: Azuma's apolipoprotein E peptide, 22 amino acids in length (RVRLASHLRKLRKRLLRDADDL; UniProt P02649 152-173, looked up, fragment) |  |  |  |  |  |  |  |  |  |  |  |  |  |  |  | very low antibacterial activity |  |
